Where two headings read alike, the source gives them in different places.

What all share (experiment): biochemical
What all share (parameters): Eurofins KinaseProfiler full panel at Km ATP, residual kinase activity (%) relative to DMSO

In one assay the target is T1, PKCβII(h) (Homo sapiens, UniProt P05771).
T1 construct: gene PRKCB; isoform beta II
Put shortly: (§1)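 Two 10 µM single-concentration screens were run: a competition-binding screen, in which DNA-tagged kinase bound to immobilized ligands was quantified by qPCR, and a radiometric activity panel at Km ATP. Each is expressed as residual kinase activity (%).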

Another assay deals with T2, CK1δ(h) (Homo sapiens, UniProt P48730).
T2 construct: gene CSNK1D
In short, it runs like this: as §1

The next assay addresses T3, BRK(h) (Homo sapiens, UniProt Q13882).
T3 construct: gene PTK6
Put shortly: as §1

In another assay the target is T4, eEF-2K(h) (Homo sapiens, UniProt O00418).
T4 construct: gene EEF2K
T4 sequence (O00418 1-725): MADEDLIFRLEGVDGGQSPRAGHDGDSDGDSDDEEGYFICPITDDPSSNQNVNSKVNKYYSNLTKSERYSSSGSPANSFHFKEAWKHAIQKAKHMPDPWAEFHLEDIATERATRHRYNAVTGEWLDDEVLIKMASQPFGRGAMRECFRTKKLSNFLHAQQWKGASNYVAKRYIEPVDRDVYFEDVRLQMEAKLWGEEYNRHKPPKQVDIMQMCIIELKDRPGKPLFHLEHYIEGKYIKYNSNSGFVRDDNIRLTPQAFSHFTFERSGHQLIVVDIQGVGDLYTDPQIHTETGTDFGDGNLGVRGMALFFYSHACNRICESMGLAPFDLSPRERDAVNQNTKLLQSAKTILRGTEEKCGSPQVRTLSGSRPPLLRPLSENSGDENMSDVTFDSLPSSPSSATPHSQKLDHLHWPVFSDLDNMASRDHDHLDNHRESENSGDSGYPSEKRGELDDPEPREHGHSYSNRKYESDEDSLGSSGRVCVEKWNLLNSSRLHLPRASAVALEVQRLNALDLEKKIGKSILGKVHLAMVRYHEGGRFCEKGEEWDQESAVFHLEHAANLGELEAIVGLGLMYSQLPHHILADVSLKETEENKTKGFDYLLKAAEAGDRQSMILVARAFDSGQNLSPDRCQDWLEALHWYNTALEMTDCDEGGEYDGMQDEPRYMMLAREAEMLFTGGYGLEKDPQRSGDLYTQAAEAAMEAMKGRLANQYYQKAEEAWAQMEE
In short, it runs like this:
as §1

A further assay addresses T5, RIPK1(h) (Homo sapiens, UniProt Q13546).
T5 sequence (Q13546 1-671): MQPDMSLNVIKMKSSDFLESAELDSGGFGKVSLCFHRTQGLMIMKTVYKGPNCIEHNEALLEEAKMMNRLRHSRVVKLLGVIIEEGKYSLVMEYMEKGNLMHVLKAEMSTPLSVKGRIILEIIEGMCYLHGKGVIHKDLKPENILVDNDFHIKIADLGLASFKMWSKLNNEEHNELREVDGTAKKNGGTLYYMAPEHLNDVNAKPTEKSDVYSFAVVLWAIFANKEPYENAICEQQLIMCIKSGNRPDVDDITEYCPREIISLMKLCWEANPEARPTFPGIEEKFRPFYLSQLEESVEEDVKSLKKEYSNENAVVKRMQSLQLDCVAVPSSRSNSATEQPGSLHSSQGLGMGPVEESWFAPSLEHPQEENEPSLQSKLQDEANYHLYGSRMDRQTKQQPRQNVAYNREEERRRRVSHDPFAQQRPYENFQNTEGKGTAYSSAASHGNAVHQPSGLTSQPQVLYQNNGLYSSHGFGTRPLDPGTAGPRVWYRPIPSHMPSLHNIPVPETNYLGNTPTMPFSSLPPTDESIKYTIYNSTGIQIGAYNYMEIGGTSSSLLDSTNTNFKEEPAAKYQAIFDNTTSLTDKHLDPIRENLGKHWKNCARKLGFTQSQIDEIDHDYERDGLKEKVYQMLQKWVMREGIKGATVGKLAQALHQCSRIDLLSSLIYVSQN
Put shortly: as §1

The next assay concerns the target T6, SAPK2a(h) (Homo sapiens, UniProt Q16539).
T6 construct: gene MAPK14
In short, it runs like this:
as §1

Setting [1] is: read-out: Residual activity (%) Spautin-1 5aa.
The mark [2] stands for this setting: read-out: Residual activity (%) 5as.
Setting [3] is: read-out: Residual activity (%) 5at.
Where [4] appears, read: read-out: Residual activity (%) 5ay.

T2 sequence (P48730 whole entry): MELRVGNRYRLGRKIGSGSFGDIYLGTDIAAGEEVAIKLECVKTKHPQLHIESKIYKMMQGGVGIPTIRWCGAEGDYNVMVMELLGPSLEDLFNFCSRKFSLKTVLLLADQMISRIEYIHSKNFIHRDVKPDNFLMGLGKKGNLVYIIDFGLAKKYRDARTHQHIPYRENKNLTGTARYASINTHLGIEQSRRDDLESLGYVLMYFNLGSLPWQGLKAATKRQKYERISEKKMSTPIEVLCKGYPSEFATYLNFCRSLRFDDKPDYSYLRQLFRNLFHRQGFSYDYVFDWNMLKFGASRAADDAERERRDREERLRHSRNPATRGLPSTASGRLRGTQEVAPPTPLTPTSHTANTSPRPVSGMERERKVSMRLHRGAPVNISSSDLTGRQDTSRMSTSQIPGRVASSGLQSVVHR
T1 sequence (P05771 whole entry, canonical isoform): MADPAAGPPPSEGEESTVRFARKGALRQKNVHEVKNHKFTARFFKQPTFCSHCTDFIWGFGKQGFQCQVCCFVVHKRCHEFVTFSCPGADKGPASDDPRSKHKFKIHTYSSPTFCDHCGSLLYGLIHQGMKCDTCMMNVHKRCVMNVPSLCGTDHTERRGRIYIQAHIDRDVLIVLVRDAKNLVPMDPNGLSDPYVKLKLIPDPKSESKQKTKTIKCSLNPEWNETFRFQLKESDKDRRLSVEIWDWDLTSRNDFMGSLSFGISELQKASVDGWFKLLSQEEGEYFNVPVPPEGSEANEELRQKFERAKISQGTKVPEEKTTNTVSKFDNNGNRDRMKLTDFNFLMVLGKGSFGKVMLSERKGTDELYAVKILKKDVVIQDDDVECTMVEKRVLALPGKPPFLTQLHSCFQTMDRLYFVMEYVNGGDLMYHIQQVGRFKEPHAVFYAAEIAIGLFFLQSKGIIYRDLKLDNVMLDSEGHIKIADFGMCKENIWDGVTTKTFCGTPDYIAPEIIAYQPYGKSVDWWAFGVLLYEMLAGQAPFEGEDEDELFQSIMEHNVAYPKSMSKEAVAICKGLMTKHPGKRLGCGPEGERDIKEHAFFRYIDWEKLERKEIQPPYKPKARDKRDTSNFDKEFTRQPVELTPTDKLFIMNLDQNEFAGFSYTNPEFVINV
T3 sequence (Q13882 whole entry): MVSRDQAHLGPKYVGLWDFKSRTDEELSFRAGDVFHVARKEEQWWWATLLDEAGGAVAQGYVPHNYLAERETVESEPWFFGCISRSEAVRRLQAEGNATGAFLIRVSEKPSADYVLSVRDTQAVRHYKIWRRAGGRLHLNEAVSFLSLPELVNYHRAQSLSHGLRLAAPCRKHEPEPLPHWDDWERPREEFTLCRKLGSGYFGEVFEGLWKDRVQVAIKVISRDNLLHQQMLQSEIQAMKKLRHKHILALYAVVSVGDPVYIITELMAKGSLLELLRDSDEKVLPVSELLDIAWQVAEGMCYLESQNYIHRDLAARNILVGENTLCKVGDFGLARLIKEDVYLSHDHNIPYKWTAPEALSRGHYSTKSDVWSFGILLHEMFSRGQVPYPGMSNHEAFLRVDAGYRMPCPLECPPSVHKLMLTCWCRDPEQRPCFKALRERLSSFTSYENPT
T6 sequence (Q16539 whole entry): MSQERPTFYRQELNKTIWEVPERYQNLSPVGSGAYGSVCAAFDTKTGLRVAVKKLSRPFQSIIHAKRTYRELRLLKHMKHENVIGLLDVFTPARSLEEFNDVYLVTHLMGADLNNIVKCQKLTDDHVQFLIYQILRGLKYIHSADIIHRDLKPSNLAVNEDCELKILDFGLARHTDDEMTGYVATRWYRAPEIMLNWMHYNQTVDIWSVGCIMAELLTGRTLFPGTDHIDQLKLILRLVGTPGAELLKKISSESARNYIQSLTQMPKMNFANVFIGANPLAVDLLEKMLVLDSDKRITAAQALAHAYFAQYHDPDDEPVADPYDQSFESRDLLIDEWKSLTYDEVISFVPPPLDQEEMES

For `Fc1ccc(CNc2ncnc3ccc(F)cc23)cc1` [5aa, 6-Fluoro-N-(4-fluorobenzyl)-4-Quinazolinamine], the remaining activity at 10 µM on PKCβII(h) (setting [1]) came out at 107%; on CK1δ(h) (setting [1]) it was 74%; at BRK(h) (setting [1]), 105%; on eEF-2K(h) (setting [1]), 87%; on RIPK1(h) (setting [1]), 86%; on SAPK2a(h) (setting [1]), 95%.
Consider `Fc1ccc(CCNc2ncnc3ccc(F)cc23)cc1` [5as, 6-Fluoro-N-[2-(4-Fluorophenyl)Ethyl]-4-Quinazolinamine], for which the remaining activity at 10 µM on PKCβII(h) (setting [2]) came to 100%; on CK1δ(h) (setting [2]) it was 80%; on BRK(h) (setting [2]), 87%; at eEF-2K(h) (setting [2]), 85%; on RIPK1(h) (setting [2]), 73%; on SAPK2a(h) (setting [2]) it was 98%.
`Fc1ccc2ncnc(NCCc3ccc(Cl)cc3)c2c1` [5at, N-[2-(4-Chlorophenyl)Ethyl]-6-Fluoro-4-Quinazolinamine]: the remaining activity at 10 µM on PKCβII(h) (setting [3]) stood at 104%; on CK1δ(h) (setting [3]) it was 80%; on BRK(h) (setting [3]), 96%; on eEF-2K(h) (setting [3]) it was 85%; on RIPK1(h) (setting [3]) it was 80%; on SAPK2a(h) (setting [3]), 88%.
In the case of `COc1ccc2ncnc(Nc3cccc(F)c3)c2c1` [5ay, N-(3-Fluorophenyl)-6-Methoxy-4-Quinazolinamine], the remaining activity at 10 µM on PKCβII(h) (setting [4]) worked out at 110%; at CK1δ(h) (setting [4]), 86%; at BRK(h) (setting [4]), 71%; at eEF-2K(h) (setting [4]), 79%; at RIPK1(h) (setting [4]), 78%; on SAPK2a(h) (setting [4]), 99%.

The values above are taken from paper PMC7827406, “Structure–Activity Relationship (SAR) Study of Spautin-1 to Entail the Discovery of Novel NEK4 Inhibitors” (International Journal of Molecular Sciences, 2021).
